Assay [1] has as its target T1, recombinant human JAK1 kinase domain protein (Residues 854-1154) (Homo sapiens, UniProt P23458).
T1 construct: human JAK1 kinase domain protein (Residues 854-1154); purchased Proteros Biostructures GmbH (Martinsried, Germany); host or cells: insect cells
The assay can be described thus: JAK1 biochemical assay (LabChip mobility shift, Ki). The following applies: read-out: Biochem JAK1 Ki.

In assay [2] the target is Recombinant human JAK2 kinase domain protein (Residues 812-1132) (Homo sapiens, UniProt O60674). The assay can be described thus: JAK2 biochemical assay (LabChip mobility shift, Ki).
Chain of Recombinant human JAK2 kinase domain protein (Residues 812-1132) (O60674 812-1132): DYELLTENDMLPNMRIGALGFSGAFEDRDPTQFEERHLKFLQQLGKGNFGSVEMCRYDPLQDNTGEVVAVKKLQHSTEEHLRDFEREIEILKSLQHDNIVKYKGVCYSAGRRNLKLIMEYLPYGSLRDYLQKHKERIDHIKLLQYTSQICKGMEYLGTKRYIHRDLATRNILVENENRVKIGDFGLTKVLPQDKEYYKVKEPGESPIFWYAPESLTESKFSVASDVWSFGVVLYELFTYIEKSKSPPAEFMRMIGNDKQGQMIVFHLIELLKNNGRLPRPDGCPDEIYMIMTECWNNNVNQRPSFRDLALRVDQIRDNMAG
Assay [3] deals with IL-13-stimulated STAT6 phosphorylation in human lung bronchial epithelial BEAS-2B cell line. Description: P-STAT6 BEAS-2B + IL-13 cell assay. The following applies: BEAS2B cells, IL13 stimulation, read-out: Cellular JAK1 PSTAT6 BEAS2B + IL13. The class given is cell-based. Put shortly: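 Phospho-STAT6 (Tyr641) was quantified in lysates by MSD electrochemiluminescence after human IL-13 challenge (250 ng/mL stock, 15 min, 37 °C). Before that, BEAS-2B cells cultured 48 h had 1 h compound exposure over 10 concentrations. Percent of control was fitted to a four-parameter logistic model to give IC50.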

Like-named read-outs stand apart in the source and are kept apart here.

We go through 17 compounds from US12528812B2 (Genentech, Inc., priority 2020, dated 2026).

As usually defined, the Ki is a dissociation constant, usually derived from enzyme kinetics or from competition with a known ligand.

T1 sequence (P23458 854-1154): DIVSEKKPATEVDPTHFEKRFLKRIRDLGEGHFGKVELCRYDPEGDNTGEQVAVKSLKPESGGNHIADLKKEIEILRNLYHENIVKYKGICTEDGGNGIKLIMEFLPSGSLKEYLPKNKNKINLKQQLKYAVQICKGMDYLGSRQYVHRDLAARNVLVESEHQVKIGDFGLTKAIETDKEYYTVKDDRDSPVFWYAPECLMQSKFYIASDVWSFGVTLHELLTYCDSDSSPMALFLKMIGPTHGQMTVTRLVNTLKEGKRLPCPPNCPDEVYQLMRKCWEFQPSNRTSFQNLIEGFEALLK

Consider `CN(C)C(=O)c1ccc(Oc2ccc(OC(F)F)c(-c3n[nH]cc3NC(=O)c3cnn4cccnc34)c2)cc1` [Example 130, N-[3-[2-(difluoromethoxy)-5-[4-(dimethylcarbamoyl)phenoxy]phenyl]-1-1H-pyrazol-4-yl]pyrazolo[1,5-a]pyrimidine-3-carboxamide], for which the inhibition constant Ki in assay [1] was found to be 0.46 nM; in assay [2] (Biochem JAK2 Ki) it was 0.23 nM. Also, the IC50 in assay [3] (Homo sapiens, BEAS-2B) is 24 nM.

For `CNC(=O)c1ccc(Oc2ccc(OC(F)F)c(-c3nn(C)cc3NC(=O)c3cnn4cccnc34)c2)cc1` [Example 131, N-[3-[2-(difluoromethoxy)-5-[4-(methylcarbamoyl)phenoxy]phenyl]-1-methyl-pyrazol-4-yl]pyrazolo[1,5-a]pyrimidine-3-carboxamide], the Ki in assay [1] is 0.41 nM; in assay [2] (Biochem JAK2 Ki) it was 0.24 nM. In assay [3] (Homo sapiens, BEAS-2B), the IC50 was determined as 23 nM.

Regarding `Cn1cc(NC(=O)c2cnn3cccnc23)c(-c2cc(Oc3cnn(C4CCC4O)c3)ccc2OC(F)F)n1` (stereo not drawn) [Example 134, N-[3-[2-(difluoromethoxy)-5-[1-(2-hydroxycyclobutyl)pyrazol-4-yl]oxy-phenyl]-1-methyl-pyrazol-4-yl]pyrazolo[1,5-a]pyrimidine-3-carboxamide], the Ki in assay [1] stood at 0.42 nM; in assay [2] (Biochem JAK2 Ki), 0.26 nM. Further, the IC50 in assay [3] (Homo sapiens, BEAS-2B) was found to be 16 nM.

For `Cn1cc(NC(=O)c2cnn3cccnc23)c(-c2cc(Oc3cnn(C4CCC4O)c3)ccc2OC(F)F)n1` (stereo not drawn) [Example 135, N-[3-[2-(difluoromethoxy)-5-[1-(2-hydroxycyc1obutyl)pyrazol-4-yl]oxy-phenyl]-1-methyl-pyrazol-4-yl]pyrazolo[1,5-a]pyrimidine-3-carboxamide], the Ki in assay [1] was 0.25 nM; in assay [2] (Biochem JAK2 Ki) it was 0.16 nM. The IC50 in assay [3] worked out at 15 nM.

`Cn1cc(NC(=O)c2cnn3cccnc23)c(-c2cc(Oc3ccc(C(N)=O)cc3)ccc2OC(F)F)n1` [Example 136, N-[3-[5-(4-carbamoylphenoxy)-2-(difluoromethoxy)phenyl]-1-methyl-pyrazol-4-yl]pyrazolo[1,5-a]pyrimidine-3-carboxamide]: the inhibition constant (Ki) in assay [1] came out at 0.5 nM; in assay [2] (Biochem JAK2 Ki), 0.23 nM. Moreover, the IC50 in assay [3] (Homo sapiens, BEAS-2B) was determined as 46 nM.

Regarding `O=C(Nc1c[nH]nc1-c1cc(Oc2cccc(C3(O)CNC3)c2)ccc1OC(F)F)c1cnn2cccnc12` [Example 137, N-[3-[2-(difluoromethoxy)-5-[3-(3-hydroxyazetidin-3-yl)phenoxy]phenyl]-1H-pyrazol-4-yl]pyrazolo[1,5-a]pyrimidine-3-carboxamide;2,2,2-trifluoroacetic acid], the inhibition constant (Ki) in assay [1] was 0.82 nM; in assay [2] (read-out: Biochem JAK2 Ki), 0.51 nM. In assay [3], the IC50 came to 1000 nM.

Turning to `CN1CC(O)(c2cccc(Oc3ccc(OC(F)F)c(-c4n[nH]cc4NC(=O)c4cnn5cccnc45)c3)c2)C1` [Example 138, N-[3-[2-(difluoromethoxy)-5-[3-(3-hydroxy-l-methyl-azetidin-3-yl)phenoxy]phenyl]-1H-pyrazol-4-yl]pyrazolo[1,5-a]pyrimidine-3-carboxamide], the values for the Ki in assay [1] and in assay [2] (read-out: Biochem JAK2 Ki) were 0.55 nM and 0.4 nM, respectively. Moreover, in assay [3], the IC50 was found to be 150 nM.

Regarding `CN(C)C(=O)c1ccc(Oc2ccc(OC(F)F)c(-c3nn(C4COC4)cc3NC(=O)c3cnn4cccnc34)c2)cc1` [Example 142, 3-[2-(difluoromethoxy)-5-[4-(dimethylcarbamoyl)phenoxy]phenyl 1-1-(oxetan-3-yl)pyrazol-4-yl]pyrazolo[1,5-a]pyrimidine-3-carboxamide], the inhibitory constant (Ki) was determined as 0.64 nM in assay [1] and 0.39 nM in assay [2] (Biochem JAK2 Ki). For the same compound, in assay [3] (Homo sapiens, BEAS-2B), the IC50 worked out at 22 nM.

Consider `CN1CC(CC#N)(c2ccc(Oc3ccc(OC(F)F)c(-c4nn(C)cc4NC(=O)c4cnn5cccnc45)c3)cc2)C1` [Example 145, N-[3-[5-[4-[3-(cyanomethyl)-1-methyl-azetidin-3-yl]phenoxy]-2-(difluoromethoxy)phenyl]-1-methyl-pyrazol-4-yl]pyrazolo[1,5-a]pyrimidine-3-carboxamide], for which the Ki in assay [1] worked out at 5.5 nM; in assay [2] (Biochem JAK2 Ki) it was 3.1 nM. In addition, the IC50 in assay [3] (Homo sapiens, BEAS-2B) stood at 160 nM.

In the case of `CN1CCN(C(=O)Cc2ccc(Oc3ccc(OC(F)F)c(-c4nn(C)cc4NC(=O)c4cnn5cccnc45)c3)cc2)CC1` [Example 146, N-[3-[2-(difluoromethoxy)-5-[4-[2-(4-methylpiperazin-1-yl)-2-oxo-ethyl]phenoxy]phenyl]-1-methyl-pyrazol-4-yl]pyrazolo[1,5-a]pyrimidine-3-carboxamide], the figures for the Ki in assay [1] and in assay [2] (Biochem JAK2 Ki) were 0.62 nM and 0.29 nM, respectively. Moreover, the IC50 in assay [3] (Homo sapiens, BEAS-2B) is 40 nM.

Turning to `Cn1cc(NC(=O)c2cnn3cccnc23)c(-c2cc(Oc3ccc(C4(CC#N)COC4)cc3)ccc2OC(F)F)n1` [Example 147], the figures for the inhibitory constant (Ki) in assay [1] and in assay [2] (Biochem JAK2 Ki) were 0.28 nM and 0.22 nM, respectively. Moreover, the IC50 in assay [3] (Homo sapiens, BEAS-2B) came out at 19 nM.

As for `Cn1cc(NC(=O)c2cnn3cccnc23)c(-c2cc(Oc3ccc(C4(CC#N)CNC4)cc3)ccc2OC(F)F)n1` [Example 148, N-[3-[5-[4-[3-(cyanomethyl)azetidin-3-yl]phenoxy]-2-(difluoromethoxy)phenyl]-1-methyl-pyrazol-4-yl]pyrazolo[1,5-a]pyrimidine-3-carboxamide], the inhibition constant (Ki) in assay [1] was 3.6 nM; in assay [2] (Biochem JAK2 Ki), 1.9 nM. For the same compound, the IC50 in assay [3] (Homo sapiens, BEAS-2B) was 210 nM.

With `Cn1cc(NC(=O)c2cnn3cccnc23)c(-c2cc(Oc3ccc(CC(=O)N4CCC4)cc3)ccc2OC(F)F)n1` [Example 149, N-[3-[5-[4-[2-(azetidin-1-yl)-2-oxo-ethyl]phenoxy]-2-(difluoromethoxy)phenyl]-1-methyl-pyrazol-4-yl]pyrazolo[1,5-a]pyrimidine-3-carboxamide], the inhibition constant (Ki) in assay [1] is 0.28 nM; in assay [2] (Biochem JAK2 Ki), 0.17 nM. Also, in assay [3] (Homo sapiens, BEAS-2B), the IC50 came out at 20 nM.

For `Cn1cc(NC(=O)c2cnn3cccnc23)c(-c2cc(Oc3ccc4c(c3)CNCC4)ccc2OC(F)F)n1` [Example 150, N-[3-[2-(difluoromethoxy)-5-(1,2,3,4-tetrahydroisoquinolin-7-yloxy)phenyl]-1-methyl-pyrazol-4-yl]pyrazolo[1,5-a]pyrimidine-3-carboxamide], the inhibition constant (Ki) in assay [1] came out at 0.21 nM; in assay [2] (Biochem JAK2 Ki), 0.22 nM. In addition, the IC50 in assay [3] (Homo sapiens, BEAS-2B) was found to be 16 nM.

Regarding `Cc1n[nH]cc1Oc1ccc(OC(F)F)c(-c2nn(C)cc2NC(=O)c2cnn3cccnc23)c1` [Example 151, N-[3-[2-(difluoromethoxy)-5-[(3-methyl-1H-pyrazol-4-yl)oxy]phenyl]-1-methy1-pyrazol-4-yl]pyrazolo[1,5-a]pyrimidine-3-carboxamide], the Ki was found to be 0.29 nM in assay [1] and 0.2 nM in assay [2] (Biochem JAK2 Ki). In addition, the IC50 in assay [3] (Homo sapiens, BEAS-2B) came out at 19 nM.

Regarding `Cc1c(Oc2ccc(OC(F)F)c(-c3nn(C)cc3NC(=O)c3cnn4cccnc34)c2)cnn1C` [Example 152, N-[3-[2-(difluoromethoxy)-5-(1,5-dimethylpyrazol-4-yl)oxy-phenyl]-1-methyl-pyrazol-4-yl]pyrazol[1,5-a]pyrimidine-3-carboxamide], the inhibition constant (Ki) in assay [1] was found to be 0.31 nM; in assay [2] (Biochem JAK2 Ki), 0.3 nM. For the same compound, the IC50 in assay [3] (Homo sapiens, BEAS-2B) was determined as 20 nM.

In the case of `Cc1nn(C)cc1Oc1ccc(OC(F)F)c(-c2nn(C)cc2NC(=O)c2cnn3cccnc23)c1` [Example 153, N-[3-[2-(difluoromethoxy)-5-(1,3-dimethylpyrazol-4-yl)oxy-phenyl]-1-methyl-pyrazol-4-yl]pyrazolo[1,5-a]pyrimidine-3-carboxamide], the inhibitory constant (Ki) in assay [1] stood at 0.46 nM; in assay [2] (Biochem JAK2 Ki) it was 0.23 nM. Further, the IC50 in assay [3] (Homo sapiens, BEAS-2B) turned out to be 27 nM.
